Data reported in US10407440B2, “Therapeutic agent for motor disorders” (KYOWA HAKKO KIRIN CO., LTD., priority 2009, dated 2019).
Where two headings read alike, the source gives them in different places.

Columns and labels:
[1] = target: T1, human adenosine A2A receptor (Homo sapiens, UniProt P29274); assay: Adenosine A2A receptor binding test (3H-CGS21680 binding); settings: compound at 100 nmol/L; Table 2, measured by Ricerca Biosciences, LLC; read-out: Inhibitory rate for human adenosine A2A receptor binding (3H-CGS21680 binding)
T1 construct: host or cells: HEK-293 cells (membranes)
Text: Specifically, for example, human recombinant receptors are expressed in HEK-293 cells.
The inhibitory rate can be calculated by the following equation.

[2] = target: T2, human adenosine A1 receptor (Homo sapiens, UniProt P30542); assay: Adenosine A1 receptor binding test (3H-DPCPX binding); settings: read-out: Inhibitory rate for human adenosine A1 receptor binding (3H-DPCPX binding)
T2 construct: host or cells: CHO cells (membranes)
T2 sequence (P30542 1-326): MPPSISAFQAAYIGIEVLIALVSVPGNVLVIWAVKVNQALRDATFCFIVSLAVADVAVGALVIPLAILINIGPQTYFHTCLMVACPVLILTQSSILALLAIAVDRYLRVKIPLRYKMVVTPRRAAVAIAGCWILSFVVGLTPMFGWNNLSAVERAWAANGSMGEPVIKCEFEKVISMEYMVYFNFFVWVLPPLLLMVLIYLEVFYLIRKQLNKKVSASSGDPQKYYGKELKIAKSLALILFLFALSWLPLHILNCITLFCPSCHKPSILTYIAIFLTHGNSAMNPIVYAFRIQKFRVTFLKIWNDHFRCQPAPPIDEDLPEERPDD
Text: Specifically, for example, human A1 receptor-expressing CHO cell membranes are used, and, as the labeled compound, for example, tritium-labeled DPCPX (1,3-dipropyl-8-cyclopentylxanthine) is used. The amount of non-specific binding can be determined by measuring the ^3H-DPCPX bound radioactivity in the presence of, for example, 100 μmol/L of R(−)-PIA((−)-N^6-2-phenylisopropyl adenosine).

[3] = tested on: MPTP-treated common marmoset; assay: Test Example 3: combination with L-DOPA in MPTP-treated common marmoset, motor disability score; assay type: in vivo
Text: Parkinson's disease is a disease based on the progressive degeneration and loss of dopaminergic neuron in substantia nigra-striatum. In primates, a treatment with MPTP, which is a dopamine neurotoxin, causes selective degeneration and loss of dopaminergic neuron in substantia nigra-striatum and induces symptoms of akinesia, muscle rigidity and the like. The primates treated with MPTP are known as the model of Parkinson's disease [Proceedings of the National Academy of Science USA, vol. 80, p. 4546 (1983)]. In addition, common marmoset belongs to Haplorhini and is known to show the symptoms of Parkinson's disease by MPTP, like other Haplorhini [Neuroscience Letter, vol. 57, p. 37 (1985)]. […] The parkinsonian symptoms were judged using the index described in a previous report [Annales of Neurology, vol. 43, p. 507 (1998)]. All compounds were used as a suspension in 0.5% MC400, 10% aqueous sucrose solution. The subject animal was placed in an observation cage (with locomotor activity measuring apparatus) one day before the test compound administration for preconditioning to the environment. The symptoms of Parkinson's disease were continuously monitored through one-way mirror and disability score was scored each 10 min for 6 hr.
The locomotor activity was automatically measured using a computer by a measuring apparatus with a photocell.

[4] = tested on: MPTP-treated common marmoset that developed motor complication; assay: Test Example 4: combination with L-DOPA in MPTP-treated common marmoset that developed motor complication; assay type: in vivo; settings: 1 mg/kg compound combined with L-DOPA 2.5 mg/kg, gavage
Method: 10 mg/kg of L-DOPA (containing 2.5 mg/kg of benserazide hydrochloride) was administered by gavage to common marmoset that developed chronic parkinsonian symptoms by treatment with MPTP by the method described in Test Example 3 (MPTP-treated marmoset) twice a day at about 6 hr intervals. L-DOPA was repeatedly administered for more than 3 weeks to induction of motor complication (dyskinesia symptom, wearing-off phenomenon, on-off fluctuation and the like) in MPTP-treated marmoset in addition to parkinsonian symptoms, and the marmoset was used for the test. […] The locomotor activity was automatically measured using a computer by a measuring apparatus with a photocell. […] The subject animal was placed in an observation cage (with locomotor activity measuring apparatus) one day before the test compound administration for preconditioning to the environment. The symptoms of Parkinson's disease were continuously monitored through one-way mirror and disability score was scored each 10 min for 6 hr.

[5] = compound at 100 nmol/L, Table 2, measured by Ricerca Biosciences, LLC

T1 sequence (P29274 whole entry): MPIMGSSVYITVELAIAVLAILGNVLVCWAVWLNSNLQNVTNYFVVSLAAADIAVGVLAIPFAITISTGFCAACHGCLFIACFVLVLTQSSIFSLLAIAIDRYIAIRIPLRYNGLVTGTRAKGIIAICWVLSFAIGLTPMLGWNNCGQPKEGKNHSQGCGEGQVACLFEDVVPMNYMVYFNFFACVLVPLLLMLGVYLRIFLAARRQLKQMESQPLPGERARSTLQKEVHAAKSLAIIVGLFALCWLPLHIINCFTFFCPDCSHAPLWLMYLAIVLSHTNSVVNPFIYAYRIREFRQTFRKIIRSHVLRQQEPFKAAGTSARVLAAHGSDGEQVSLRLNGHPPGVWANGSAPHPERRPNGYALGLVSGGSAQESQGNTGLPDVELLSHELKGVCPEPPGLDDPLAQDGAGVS

Compound | inhibition at 0.1 µM [1] | inhibition at 0.1 µM [2, 5] | other results
O=C(Nc1nc(-c2ccoc2)c(C(=O)C2CCOCC2)s1)c1cnc2c(c1)CCC2 [(IAA), N-[4-(3-Furyl)-5-(tetrahydropyran-4-carbonyl)thiazol-2-yl]-6,7-dihydro-5H-cyclopenta[b]pyridine-3-carboxamide] | 98% | 9% | 
C=Cc1ccc(C(=O)Nc2nc(-c3ccco3)c(C(=O)C3CCOCC3)s2)cn1 [(IE), N-[4-(2-Furyl)-5-(tetrahydropyran-4-carbonyl)thiazol-2-yl]-6-vinylpyridine-3-carboxamide] | 93% | 33% | 
O=C(Cc1cccnc1)Nc1nc(-c2ccco2)c(C(=O)C2CCOCC2)s1 [(IF), N-[4-(2-Furyl)-5-(tetrahydropyran-4-carbonyl)thiazol-2-yl]-2-(pyridin-3-yl)acetamide] | 107% | 50% | 
O=C(Nc1nc(-c2ccco2)c(C(=O)C2CCOCC2)s1)c1ccc[nH]1 [(IG), N-[4-(2-Furyl)-5-(tetrahydropyran-4-carbonyl)thiazol-2-yl]-1H-pyrrole-2-carboxamide] | 102% | 91% | 
O=C(Nc1nc(-c2ccco2)c(C(=O)C2CCOCC2)s1)c1cccc2[nH]ccc12 [(IH), N-[4-(2-Furyl)-5-(tetrahydropyran-4-carbonyl)thiazol-2-yl]-1H-indole-4-carboxamide] | 98% | 67% | 
O=C(Nc1nc(-c2ccco2)c(C(=O)C2CCOCC2)s1)c1ccnc(CN2CCOCC2)c1 [(II), N-[4-(2-Furyl)-5-(tetrahydropyran-4-carbonyl)thiazol-2-yl]-2-(morpholin-4-ylmethyl)pyridine-4-carboxamide] | 85% | 19% | 
COCc1cc(C(=O)Nc2nc(-c3ccco3)c(C(=O)C3CCOCC3)s2)ccn1 [(IJ), N-[4-(2-Furyl)-5-(tetrahydropyran-4-carbonyl)thiazol-2-yl]-2-methoxymethylpyridine-4-carboxamide] | 93% | 21% | 
CCOCc1cc(C(=O)Nc2nc(-c3ccco3)c(C(=O)C3CCOCC3)s2)ccn1 [(IK), 2-Ethoxymethyl-N-[4-(2-furyl)-5-(tetrahydropyran-4-carbonyl)thiazol-2-yl]pyridine-4-carboxamide] | 92% | 24% | 
CC(C)OCc1cc(C(=O)Nc2nc(-c3ccco3)c(C(=O)C3CCOCC3)s2)ccn1 [(IL), N-[4-(2-Furyl)-5-(tetrahydropyran-4-carbonyl)thiazol-2-yl]-2-isopropoxymethylpyridine-4-carboxamide] | 85% | 20% | 
O=C(Nc1nc(-c2ccco2)c(C(=O)C2CCOCC2)s1)c1cnc2occc2c1 [(IM), N-[4-(2-Furyl)-5-(tetrahydropyran-4-carbonyl)thiazol-2-yl]furo[2,3-b]pyridine-5-carboxamide] | 98% | 47% | 
O=C(Cc1ccccn1)Nc1nc(-c2ccco2)c(C(=O)C2CCOCC2)s1 [(IN), N-[4-(2-Furyl)-5-(tetrahydropyran-4-carbonyl)thiazol-2-yl]-2-(pyridin-2-yl)acetamide] | 93% | 21% | 
COc1ccc(C(=O)Nc2nc(-c3ccco3)c(C(=O)C3CCOCC3)s2)cn1 [(IO), N-[4-(2-Furyl)-5-(tetrahydropyran-4-carbonyl)thiazol-2-yl]-6-methoxypyridine-3-carboxamide] | 97% | 56% | 
O=C(Nc1nc(-c2ccco2)c(C(=O)C2CCOCC2)s1)c1cnc2ccccc2c1 [(IP), N-[4-(2-Furyl)-5-(tetrahydropyran-4-carbonyl)thiazol-2-yl]quinoline-3-carboxamide] | 98% | 18% | 
Cc1ccc(C(=O)Nc2nc(-c3ccco3)c(C(=O)C3CCOCC3)s2)cn1 [Compound (IC)] |  |  | inhibition at 0.1 µM [2]: 29%; duration of anti-parkinsonian activity of L-DOPA ([3]; 1 mg/kg compound co-administered orally with L-DOPA 2.5, 5.0, 7.5 and 10.0 mg/kg): prolonged the anti-parkinsonian activity of L-DOPA; maximum effects of L-DOPA (minimum motor disability score) ([3]; 1 mg/kg compound co-administered orally with L-DOPA 2.5, 5.0, 7.5 and 10.0 mg/kg, versus L-DOPA alone): enhanced maximum effects of L-DOPA alone; action expression time (on-time) ([3]; 1 mg/kg compound plus 10 mg/kg L-DOPA orally, compared to 10 mg/kg L-DOPA alone): increased; duration (on-time) of anti-parkinsonian activities of L-DOPA [4]: about 150 min; minimum disability score [4]: 3.83±0.17

Continued, in another order:

inhibition at 0.1 µM [1] | inhibition at 0.1 µM [2, 5] | Compound | other results
100% | 18% | Cc1cc(C(=O)Nc2nc(-c3ccco3)c(C(=O)C3CCOCC3)s2)cnc1C [(IQ), N-[4-(2-Furyl)-5-(tetrahydropyran-4-carbonyl)thiazol-2-yl]-5,6-dimethylpyridine-3-carboxamide] | 
107% | 30% | CCc1cncc(C(=O)Nc2nc(-c3ccco3)c(C(=O)C3CCOCC3)s2)c1 [(IR), 5-Ethyl-N-[4-(2-furyl)-5-(tetrahydropyran-4-carbonyl)thiazol-2-yl]pyridine-3-carboxamide] | 
90% | 10% | O=C(Nc1nc(-c2ccco2)c(C(=O)C2CCOCC2)s1)c1cnc2c(c1)COCC2 [(IS), N-[4-(2-Furyl)-5-(tetrahydropyran-4-carbonyl)thiazol-2-yl]-7,8-dihydro-5H-pyrano[4,3-b]pyridine-3-carboxamide] | 
91% | 37% | O=C(Nc1nc(-c2ccco2)c(C(=O)C2CCOCC2)s1)c1cnc2c(c1)CCC2 [(IT), N-[4-(2-Furyl)-5-(tetrahydropyran-4-carbonyl)thiazol-2-yl]-6,7-dihydro-5H-cyclopenta[b]pyridine-3-carboxamide] | 
110% | 36% | O=C(Nc1nc(-c2ccco2)c(C(=O)C2CCOCC2)s1)c1cc2ccccc2[nH]1 [(IU), N-[4-(2-Furyl)-5-(tetrahydropyran-4-carbonyl)thiazol-2-yl]-1H-indole-2-carboxamide] | 
98% | 23% | CCc1ccc(C(=O)Nc2nc(-c3ccco3)c(C(=O)C3CCOCC3)s2)cn1 [(IV), 6-Ethyl-N-[4-(2-furyl)-5-(tetrahydropyran-4-carbonyl)thiazol-2-yl]pyridine-3-carboxamide] | 
98% | 23% | CCCc1ccc(C(=O)Nc2nc(-c3ccco3)c(C(=O)C3CCOCC3)s2)cn1 [(IW), N-[4-(2-Furyl)-5-(tetrahydropyran-4-carbonyl)thiazol-2-yl]-6-propylpyridine-3-carboxamide] | 
101% | 18% | O=C(Nc1nc(-c2ccco2)c(C(=O)C2CCOCC2)s1)c1cnc2c(c1)CSCC2 [(IX), N-[4-(2-Furyl)-5-(tetrahydropyran-4-carbonyl)thiazol-2-yl]-7,8-dihydro-5H-thiopyrano[4,3-b]pyridine-3-carboxamide] | 
97% | 8% | CC(=O)c1cc(C(=O)Nc2nc(-c3ccco3)c(C(=O)C3CCOCC3)s2)cnc1C [(IY), 5-Acetyl-N-[4-(2-furyl)-5-(tetrahydropyran-4-carbonyl)thiazol-2-yl]-6-methylpyridine-3-carboxamide] | 
102% | 21% | CCc1cncc(C(=O)Nc2nc(-c3ccoc3)c(C(=O)C3CCOCC3)s2)c1 [(IZ), 5-Ethyl-N-[4-(3-furyl)-5-(tetrahydropyran-4-carbonyl)thiazol-2-yl]pyridine-3-carboxamide] | 
